Laboratory results from patent US20230365554A1, “SUBSTITUTED PYRROLO-PYRIDINONE DERIVATIVES AND THERAPEUTIC USES THEREOF” (The Broad Institute, Inc., priority 2020, published 2023).

Legend:
[1] = target: human CSNK1A1 (Homo sapiens (Human), UniProt P48729); assay: CSNK1A1 Assay 2 (ADP-Glo, 1 μM ATP); type: biochemical; conditions: median, Table 2, read-out: CSNK1A1 Assay 2 IC50 [mol/l] (median)
Method: CSNK1A1-inhibitory activity of compounds of the present invention in presence of 1 μM adenosine-tri-phosphate (ATP) was quantified employing the CSNK1A1 assay as described in the following paragraphs. In essence, the enzyme activity is measured by quantification of the adenosine-di-phosphate (ADP), which is generated as a co-product of the enzyme reaction, via the “ADP-Glo™ Kinase Assay” kit from the company Promega. This detection system works as follows: In a first step the ATP not consumed in the kinase reaction is quantitatively converted to cAMP employing an adenylate cyclase (“ADP-Glo-reagent”), then the adenylate cyclase is stopped and the ADP generated in the kinase reaction converted to ATP which generates in a luciferase-based reaction a glow-luminescence signal (“Kinase Detection Reagent”).
Recombinant fusion protein of N-terminal Glutathion-S-Transferase (GST) and full-length human CSNK1A1, expressed by baculovirus infected insect cells and purified via Glutathion affinity chromatography, was purchased from Life Technologies (product no. PV4174) and used as enzyme. As substrate for the kinase reaction the biotinylated peptide biotin-Ahx-KRRRAL-pS-VASLPGL (C-terminus in amide form) was used which can be purchased e.g. from the company Biosyntan (Berlin-Buch, Germany).
For the assay 50 nl of a 100 fold concentrated solution of the test compound in DMSO was pipetted into a white 1536-well microtiter plate (Greiner Bio-One, Frickenhausen, Germany), 2 μL of a solution of CSNK1A1 in aqueous assay buffer [50 mM HEPES pH 7.5, 10% (v/v) glycerol, 10 mM MgCl2, 50 mM NaCl, 1 mM dithiothreitol, 0.01% (w/v) bovine serum albumin, 0.01% (v/v) Triton X-100] were added and the mixture was incubated for 15 min at 22° C. to allow pre-binding of the test compounds to the enzyme before the start of the kinase reaction. Then the kinase reaction was started by the addition of 3 μL of a solution of ATP (1.67 μM=>final conc. in the 5 μL assay volume is 1 μM) and peptide substrate (50 μM=>final conc. in the 5 μL assay volume is 30 μM) in assay buffer and the resulting mixture was incubated for a reaction time of 30 min at 22° C. The concentration of CSNK1A1 was adjusted depending of the activity of the enzyme lot and was chosen appropriate to have the assay in the linear range, a typical concentrations are about 0.0375 ng/μL. The reaction was stopped by the addition of 2.5 μL of “ADP-Glo-reagent” (1:1.5 fold diluted with water) and the resulting mixture was incubated at 22° C. for 1 h to convert the ATP not consumed in the kinase reaction completely […]. Subsequently 2.5 μL of the “kinase detection reagent” (1.2 fold more concentrated than recommended by the producer) were added, the resulting mixture was incubated at 22° C. for 1 h and then the luminescence measured with a suitable measurement instrument (e.g. Viewlux™ from Perkin-Elmer). The amount of emitted light was taken as a measure for the amount of ADP generated and thereby for the activity of the CSNK1A1.
The data were normalised (enzyme reaction without inhibitor=0% inhibition, all other assay components but no enzyme=100% inhibition).

[2] = target: wild-type Epidermal Growth Factor Receptor (EGFR) (Homo sapiens (Human), UniProt P00533); assay: WT-EGFR kinase assay (TR-FRET, 2 mM ATP); type: biochemical; conditions: median or individual measurements, Table 3, read-out: EGFR Wildtyp-2mM ATP IC50 [mol/l] (median)
Chain of wild-type Epidermal Growth Factor Receptor (EGFR) (P00533 669-1210): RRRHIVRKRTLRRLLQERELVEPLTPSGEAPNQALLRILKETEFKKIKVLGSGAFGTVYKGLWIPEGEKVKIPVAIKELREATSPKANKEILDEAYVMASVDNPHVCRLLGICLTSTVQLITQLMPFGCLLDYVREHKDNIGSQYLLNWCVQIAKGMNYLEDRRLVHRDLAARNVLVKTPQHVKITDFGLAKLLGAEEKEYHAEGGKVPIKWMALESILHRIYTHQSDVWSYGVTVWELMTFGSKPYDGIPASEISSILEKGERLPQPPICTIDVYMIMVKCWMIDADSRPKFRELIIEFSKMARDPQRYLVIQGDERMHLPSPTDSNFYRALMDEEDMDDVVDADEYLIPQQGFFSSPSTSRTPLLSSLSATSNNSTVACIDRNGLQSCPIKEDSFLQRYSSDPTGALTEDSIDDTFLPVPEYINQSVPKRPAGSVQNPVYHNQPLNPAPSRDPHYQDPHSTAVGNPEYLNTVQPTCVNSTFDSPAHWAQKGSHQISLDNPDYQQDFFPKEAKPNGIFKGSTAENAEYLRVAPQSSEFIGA
Excerpt: Inhibitory activity of compounds of the present invention against wild-type Epidermal Growth Factor Receptor (EGFR) was quantified employing the TR-FRET based EGFR assay as described in the following paragraphs.
Recombinant fusion protein of N-terminal Glutathion-S-Transferase (GST) and a fragment of human EGFR (amino acids R669 to A1210), expressed in Sf9 insect cells and purified via affinity chromatography using Glutathion Sepharose as described above, was used as kinase. As substrate for the kinase reaction the biotinylated peptide biotin-Ahx-AEEEEYFELVAKKK (C-terminus in amide form) was used which can be purchased e.g. form the company Biosynthan GmbH (Berlin-Buch, Germany).
For the assay 50 nl of a 100 fold concentrated solution of the test compound in DMSO was pipetted into either a black low volume 384 well microtiter plate or a black 1536 well microtiter plate (both Greiner Bio-One, Frickenhausen, Germany), 2 μL of a solution of EGFR in aqueous assay buffer [50 mM Hepes pH 7.0, 10 mM MgCl2, 1 mM dithiothreitol, 0.5 mM EGTA, 0.3 mM activated sodium ortho-vanadate, 0.005% (w/v) bovine serum albumin, 0.005% (v/v) Tween-20] were added and the mixture was incubated for 15 min at 22° C. to allow pre-binding of the test compounds to the enzyme before the start of the kinase reaction. Then the kinase reaction was started by the addition of 3 μL of a solution of adenosine-tri-phosphate (ATP, 3.33 mM=>final conc. in the 5 μL assay volume is 2 mM) and substrate (1.67 μM=>final conc. in the 5 μL assay volume is 1 μM) in assay buffer and the resulting mixture was incubated for a reaction time of 30 min at 22° C. The concentration of EGFR was adjusted depending of the activity of the enzyme lot and was chosen appropriate to have the assay in the linear range, typical concentration was 7.6 pg/μL. The reaction was stopped by the addition of 3 μL of a solution of HTRF detection reagents (83.3 nM streptavidine-XL665 [Cisbio Bioassays, Codolet, France] and 1.67 nM PT66-Tb-Cryptate, a terbium-cryptate labelled anti-phospho-tyrosine antibody from Cisbio Bioassays [instead of the PT66-Tb-cryptate PT66-Eu-Chelate from Perkin Elmer can also be used]) in an aqueous EDTA-solution (133.3 mM EDTA, 0.2% (w/v) bovine serum albumin in 50 mM HEPES pH 7.5).
The resulting mixture was incubated 1 h at 22° C. to allow the binding of the biotinylated phosphorylated peptide to the streptavidine-XL665 and the PT66-Tb-Cryptate. Subsequently the amount of phosphorylated substrate was evaluated by measurement of the resonance energy transfer from the PT66-Tb-Cryptate to the streptavidine-XL665. Therefore, the fluorescence emissions at 620 nm and 665 nm after excitation at 337 nm were measured in a HTRF reader, e.g. a Pherastar (BMG Labtechnologies, Offenburg, Germany) or a Viewlux (Perkin-Elmer). The ratio of the emissions at 665 nm and at […] was taken as the measure for the amount of phosphorylated substrate. The data were normalised (enzyme reaction without inhibitor=0% inhibition, all other assay components but no enzyme=100% inhibition).

Chain of human CSNK1A1 (P48729 whole entry): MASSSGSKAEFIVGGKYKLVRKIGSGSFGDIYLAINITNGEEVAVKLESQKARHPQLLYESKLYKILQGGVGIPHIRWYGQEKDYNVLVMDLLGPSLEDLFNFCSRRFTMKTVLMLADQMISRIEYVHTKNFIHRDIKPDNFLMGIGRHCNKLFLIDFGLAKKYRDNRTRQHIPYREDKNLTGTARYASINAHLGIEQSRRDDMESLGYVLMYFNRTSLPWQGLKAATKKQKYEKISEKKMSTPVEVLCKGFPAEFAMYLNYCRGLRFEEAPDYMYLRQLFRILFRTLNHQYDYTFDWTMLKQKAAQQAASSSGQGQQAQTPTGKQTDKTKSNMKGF

Compound: CCC1CNC(=O)c2c1[nH]c(-c1ccnc(NC(=O)Cc3ccc(F)cc3)c1)c2Nc1ccccc1 (racemic) [Example 1, N-{4-[3-anilino-7-ethyl-4-oxo-4,5,6,7-tetrahydro-1H-pyrrolo[3,2-c]pyridin-2-yl]pyridin-2-yl}-2-(4-fluorophenyl)acetamide]
- IC50 [1]: 0.0015 µM
- IC50 [2]: 0.057 µM

Compound: CCc1c[nH]c(=O)c2c(Nc3ccccc3)c(-c3ccnc(NC(=O)C(CC(F)F)c4ccc(F)cc4)c3)[nH]c12 (racemic) [Example 5, N-[4-(3-anilino-7-ethyl-4-oxo-4,5-dihydro-1H-pyrrolo[3,2-c]pyridin-2-yl)pyridin-2-yl]-4,4-difluoro-2-(4-fluorophenyl)butanamide]
- IC50 [1]: 0.0072 µM
- IC50 [2]: 7.3 µM

Compound: CC1CN(C)C(=O)c2c1[nH]c(-c1ccnc(NC(=O)Cc3ccc(F)cc3)c1)c2Nc1ccccc1 (racemic) [Example 6, N-{4-[3-anilino-5,7-dimethyl-4-oxo-4,5,6,7-tetrahydro-1H-pyrrolo[3,2-c]pyridin-2-yl]pyridin-2-yl}-2-(4-fluorophenyl)acetamide]
- IC50 [1]: 0.0026 µM
- IC50 [2]: 1.4 µM

Compound: CC1CN(C)C(=O)c2c1[nH]c(-c1ccnc(NC(=O)C(C)c3ccc(F)cc3)c1)c2Nc1ccccc1 (racemic) [Example 9, N-{4-[(7RS)-3-anilino-5,7-dimethyl-4-oxo-4,5,6,7-tetrahydro-1H-pyrrolo[3,2-c]pyridin-2-yl]pyridin-2-yl}-2-(4-fluorophenyl)propanamide]
- IC50 [1]: 0.0056 µM
- IC50 [2]: 13 µM

Compound: Cc1cn(C)c(=O)c2c(Nc3ccccc3)c(-c3ccnc(NC(=O)C(CC(F)F)c4ccc(F)cc4)c3)[nH]c12 (racemic) [Example 11, N-[4-(3-anilino-5,7-dimethyl-4-oxo-4,5-dihydro-1H-pyrrolo[3,2-c]pyridin-2-yl)pyridin-2-yl]-4,4-difluoro-2-(4-fluorophenyl)butanamide]
- IC50 [1]: 0.019 µM
- IC50 [2]: > 20 µM

Compound: CN1CC(CC(F)(F)F)c2[nH]c(-c3ccnc(NC(=O)Cc4ccc(F)cc4)c3)c(Nc3ccccc3)c2C1=O (racemic) [Example 14, N-{4-[3-anilino-5-methyl-4-oxo-7-(2,2,2-trifluoroethyl)-4,5,6,7-tetrahydro-1H-pyrrolo[3,2-c]pyridin-2-yl]pyridin-2-yl}-2-(4-fluorophenyl)acetamide]
- IC50 [1]: 0.0031 µM
- IC50 [2]: 1.1 µM

Compound: CN1CC(CC2CC2)c2[nH]c(-c3ccnc(NC(=O)Cc4ccc(F)cc4)c3)c(Nc3ccccc3)c2C1=O (racemic) [Example 18, N-{4-[3-anilino-7-(cyclopropylmethyl)-5-methyl-4-oxo-4,5,6,7-tetrahydro-1H-pyrrolo[3,2-c]pyridin-2-yl]pyridin-2-yl}-2-(4-fluorophenyl)acetamide]
- IC50 [1]: 0.0066 µM
- IC50 [2]: 4.3 µM

Compound: O=C1N[C@@H]2CCC[C@@H]2c2[nH]c(-c3ccnc(NC(=O)C(CC(F)F)c4ccc(F)cc4)c3)c(Nc3ccccc3)c21 (mixture of isomers) [Example 21, (2RS)—N-{4-[cis-3-anilino-4-oxo-1,4,5,5a,6,7,8,8a-octahydrocyclopenta[b]pyrrolo[2,3-d]pyridin-2-yl]pyridin-2-yl}-4,4-difluoro-2-(4-fluorophenyl)butanamide]
- IC50 [1]: 0.011 µM
- IC50 [2]: 4.5 µM

Compound: Cn1ccc2[nH]c(-c3ccnc(NC(=O)C(CC(F)F)c4ccc(F)cc4)c3)c(Nc3ccccc3)c2c1=O (racemic) [Example 28, N-[4-(3-anilino-5-methyl-4-oxo-4,5-dihydro-1H-pyrrolo[3,2-c]pyridin-2-yl)pyridin-2-yl]-4,4-difluoro-2-(4-fluorophenyl)butanamide]
- IC50 [1]: 0.0052 µM
- IC50 [2]: 12 µM

Compound: Cc1cc2[nH]c(-c3ccnc(NC(=O)C(CC(F)F)c4ccc(F)cc4)c3)c(Nc3ccccc3F)c2c(=O)n1C (racemic) [Example 31, 4,4-difluoro-N-{4-[3-(2-fluoroanilino)-5,6-dimethyl-4-oxo-4,5-dihydro-1H-pyrrolo[3,2-c]pyridin-2-yl]pyridin-2-yl}-2-(4-fluorophenyl)butanamide]
- IC50 [1]: 0.031 µM
- IC50 [2]: > 20 µM

Compound: Cc1cn(C)c(=O)c2c(Nc3ccccc3)c(-c3ccnc(NC(=O)C(C)c4ccc(F)cc4)c3)[nH]c12 (racemic) [Example 39, N-[4-(3-anilino-5,7-dimethyl-4-oxo-4,5-dihydro-1H-pyrrolo[3,2-c]pyridin-2-yl)pyridin-2-yl]-2-(4-fluorophenyl)propanamide]
- IC50 [1]: 0.051 µM
- IC50 [2]: 18 µM

Compound: CN1CC(CC(F)F)c2[nH]c(-c3ccnc(NC(=O)Cc4ccc(F)cc4)c3)c(Nc3ccccc3)c2C1=O (racemic) [Example 42, N-{4-[3-anilino-7-(2,2-difluoroethyl)-5-methyl-4-oxo-4,5,6,7-tetrahydro-1H-pyrrolo[3,2-c]pyridin-2-yl]pyridin-2-yl}-2-(4-fluorophenyl)acetamide]
- IC50 [1]: 0.0018 µM
- IC50 [2]: 1.1 µM

Compound: CN1CC(CC(F)(F)F)c2[nH]c(-c3ccnc(NC(=O)Cc4ccc(F)cc4)c3)c(Nc3cscn3)c2C1=O (racemic) [Example 46, 2-(4-fluorophenyl)-N-{4-[(7RS)-5-methyl-4-oxo-3-(1,3-thiazol-4-ylamino)-7-(2,2,2-trifluoroethyl)-4,5,6,7-tetrahydro-1H-pyrrolo[3,2-c]pyridin-2-yl]pyridin-2-yl}acetamide]
- IC50 [1]: 0.023 µM
- IC50 [2]: > 20 µM

Compound: CN1CC(CC2CC2)c2[nH]c(-c3ccnc(NC(=O)Cc4ccc(F)cc4)c3)c(Nc3cscn3)c2C1=O (racemic) [Example 49, N-{4-[(7RS)-7-(cyclopropylmethyl)-5-methyl-4-oxo-3-(1,3-thiazol-4-ylamino)-4,5,6,7-tetrahydro-1H-pyrrolo[3,2-c]pyridin-2-yl]pyridin-2-yl}-2-(4-fluorophenyl)acetamide]
- IC50 [1]: 0.0059 µM
- IC50 [2]: > 20 µM
